Literature values as cited in patent US5593970A, “Heterocyclic anthracycline analogs” (priority 1994, dated 1997).

Experiments:
tumor = conditions: cited from earlier work
bacteria and fungi = conditions: cited from earlier work

Q: For `CC(=O)N1Cc2c(O)c3c(c(O)c2C(O[C@H]2C[C@H](NC(=O)C(F)(F)F)[C@H](O)[C@H](C)O2)C1)C(=O)c1ccccc1C3=O` (stereo partly drawn) [N-(trifluoroacetyl)-4-demethoxy-9-azadaunorubicin], which antitumor activity (tumor) is on record?
A: no antitumor activity

Q: Which “antibacterial and antifungal activity” value (bacteria and fungi) does the source give for `CC1OC2OC(=O)OC2C2=C1C(=O)c1c(O)cccc1C2=O` (stereo not drawn) [kalafungin] here?
A: potent antibacterial as well as antifungal activity

Q: For `C[C@@H]1O[C@@H](CC(=O)O)CC2=C1C(=O)c1c(O)cccc1C2=O` [nanaomycin A], which “antibacterial and antifungal activity” value (bacteria and fungi) is on record?
A: potent antibacterial as well as antifungal activity
